Laboratory results reported in US11192867B2, “Microbiocidal oxadiazole derivatives” (SYNGENTA PARTICIPATIONS AG, priority 2016, dated 2021).

Legend:
[1] = system: Phakopsora pachyrhizi; assay: Fungicidal activity against Phakopsora pachyrhizi / soybean / leaf disc preventative (Asian soybean rust); type: in vivo; settings: foliar, 200 ppm in the applied formulation, soybean leaf disks, vs untreated control, read-out: disease control
Description: Leaf disks or leaf segments of various plant species are cut from plants grown in a greenhouse. The cut leaf disks or segments are placed in multiwell plates (24-well format) onto water agar. The leaf disks are sprayed with a test solution before (preventative) or after (curative) inoculation. Compounds to be tested are prepared as DMSO solutions (max. 10 mg/ml) which are diluted to the appropriate concentration with 0.025% Tween20 just before spraying. The inoculated leaf disks or segments are incubated under defined conditions (temperature, relative humidity, light, etc.) according to the respective test system. A single evaluation of disease level is carried out 3 to 14 days after inoculation, depending on the pathosystem. Percent disease control relative to the untreated check leaf disks or segments is then calculated. Soybean leaf disks are placed on water agar in multiwell plates (24-well format) and sprayed with the formulated test compound diluted in water. One day after application leaf discs are inoculated by spraying a spore suspension on the lower leaf surface. After an incubation period in a climate cabinet of 24-36 hours in darkness at 20° C. and 75% rh leaf disc are kept at 20° C. with 12 hours light/12 hours and 75% rh. The activity of a compound is assessed as percent disease control compared to untreated when an appropriate level of disease damage appears in untreated check leaf disks (12 to 14 days after application). The following compounds at 200 ppm in the applied formulation give at least 80% disease control in this test when compared to untreated control leaf disks under the same conditions, which show extensive disease development.

[2] = system: Glomerella lagenarium (Colletotrichum lagenarium); assay: Fungicidal activity against Glomerella lagenarium (Colletotrichum lagenarium) liquid culture / cucumber / preventative (anthracnose); type: cell-based; settings: Colletotrichum orbiculare, 72 h; 20 ppm in the applied formulation; liquid culture (PDB), growth inhibition measured photometrically 3 to 4 days after application; vs untreated control; read-out: disease control
Description: Mycelia fragments or conidia suspensions of a fungus prepared either freshly from liquid cultures of the fungus or from cryogenic storage, are directly mixed into nutrient broth. DMSO solutions of the test compound (max. 10 mg/ml) are diluted with 0.025% Tween20 by a factor of 50 and 10 μl of this solution is pipetted into a microtiter plate (96-well format). The nutrient broth containing the fungal spores/mycelia fragments is then added to give an end concentration of the tested compound. The test plates are incubated in the dark at 24° C. and 96% relative humidity. The inhibition of fungal growth is determined photometrically after 2 to 7 days, depending on the pathosystem, and percent antifungal activity relative to the untreated check is calculated.
Conidia of the fungus from cryogenic storage are directly mixed into nutrient broth (PDB—potato dextrose broth). After placing a (DMSO) solution of test compound into a microtiter plate (96-well format), the nutrient broth containing the fungal spores is added. The test plates are incubated at 24° C. and the inhibition of growth is measured photometrically 3 to 4 days after application.
The following compounds at 20 ppm in the applied formulation give at least 80% disease control in this test when compared to untreated control under the same conditions, which show extensive disease development.

[3] = system: Puccinia recondita f. sp. Tritici; assay: Fungicidal activity against Puccinia recondita f. sp. Tritici / wheat / leaf disc preventative (brown rust); type: in vivo; settings: foliar, 200 ppm in the applied formulation, wheat leaf segments cv. Kanzler, inoculated 1 day after application, vs untreated control, read-out: disease control
Description: Leaf disks or leaf segments of various plant species are cut from plants grown in a greenhouse. The cut leaf disks or segments are placed in multiwell plates (24-well format) onto water agar. The leaf disks are sprayed with a test solution before (preventative) or after (curative) inoculation. Compounds to be tested are prepared as DMSO solutions (max. 10 mg/ml) which are diluted to the appropriate concentration with 0.025% Tween20 just before spraying. The inoculated leaf disks or segments are incubated under defined conditions (temperature, relative humidity, light, etc.) according to the respective test system. A single evaluation of disease level is carried out 3 to 14 days after inoculation, depending on the pathosystem. Percent disease control relative to the untreated check leaf disks or segments is then calculated. Wheat leaf segments cv. Kanzler were placed on agar in multiwell plates (24-well format) and sprayed with the formulated test compound diluted in water. The leaf disks were inoculated with a spore suspension of the fungus 1 day after application. The inoculated leaf segments were incubated at 19° C. and 75% relative humidity (rh) under a light regime of 12 hours light/12 hours darkness in a climate cabinet and the activity of a compound was assessed as percent disease control compared to untreated when an appropriate level of disease damage appears in untreated check leaf segments (7 to 9 days after application). The following compounds at 200 ppm in the applied formulation give at least 80% disease control in this test when compared to untreated control leaf disks under the same conditions, which show extensive disease development.

SMILES | pest or weed control at 200 ppm [1] [%] | inhibition of growth at 20 ppm [2] [%] | pest or weed control at 200 ppm [3] [%]
CC(C=NOCC(F)(F)F)NC(=O)c1ccc(-c2noc(C(F)(F)F)n2)cc1 (stereo not shown) [Compound 1.51, N-[1-methyl-2-(2,2,2-trifluoroethoxy-imino)ethyl]-4-[5-(trifluoromethyl)-1,2,4-oxadiazol-3-yl]benzamide] | ≥ 80 | ≥ 80 | 
CC(CNC(=O)c1ccc(-c2noc(C(F)(F)F)n2)cc1)=NOCc1ccccc1 [Compound 1.134, N-(2-benzyloxyimino-propyl)-4-[5-(trifluoromethyl)-1,2,4-oxadiazol-3-yl]benzamide] | ≥ 80 | ≥ 80 | 
CC(CNC(=O)c1ccc(-c2noc(C(F)(F)F)n2)cc1)=NOCc1ccc(F)cc1 [Compound 1.140, N-[2-[(4-fluorophenyl)methoxyimino]propyl]-4-[5-(trifluoromethyl)-1,2,4-oxadiazol-3-yl]benzamide] |  | ≥ 80 | 
O=C(NCC=NOCc1ccc(F)cc1)c1ccc(-c2noc(C(F)(F)F)n2)cc1 [Compound 1.96, N-[2-[(4-fluorophenyl)methoxyimino]ethyl]-4-[5-(trifluoromethyl)-1,2,4-oxadiazol-3-yl]benzamide] |  | ≥ 80 | 
CC(C=NOCc1ccccc1Cl)NC(=O)c1ccc(-c2noc(C(F)(F)F)n2)cc1 (stereo not shown) [Compound 1.22, N-[2-[(2-chlorophenyl)methoxyimino]-1-methyl-ethyl]-4-[5-(trifluoromethyl)-1,2,4-oxadiazol-3-yl]benzamide] | ≥ 80 | ≥ 80 | 
CC(C=NOCC1CC1)NC(=O)c1ccc(-c2noc(C(F)(F)F)n2)cc1 (stereo not shown) [Compound 1.57, N-[2-(cyclopropyl-methoxyimino)-1-methyl-ethyl]-4-[5-(trifluoromethyl)-1,2,4-oxadiazol-3-yl]benzamide] | ≥ 80 | ≥ 80 | 
CCCCON=CCNC(=O)c1ccc(-c2noc(C(F)(F)F)n2)cc1 [Compound 1.85, N-(2-butoxyiminoethyl)-4-[5-(trifluoromethyl)-1,2,4-oxadiazol-3-yl]benzamide] | ≥ 80 | ≥ 80 | 
CC(C=NOCc1ccccc1F)NC(=O)c1ccc(-c2noc(C(F)(F)F)n2)cc1 (stereo not shown) [Compound 1.24, N-[2-[(2-fluorophenyl)methoxyimino]-1-methyl-ethyl]-4-[5-(trifluoromethyl)-1,2,4-oxadiazol-3-yl]benzamide] | ≥ 80 | ≥ 80 | 
O=C(NCC=NOCc1cccc(Cl)c1)c1ccc(-c2noc(C(F)(F)F)n2)cc1 [Compound 1.97, N-[2-[(3-chlorophenyl)methoxyimino]ethyl]-4-[5-(trifluoromethyl)-1,2,4-oxadiazol-3-yl]benzamide] |  |  | ≥ 80
Cc1ccc(CON=CCNC(=O)c2ccc(-c3noc(C(F)(F)F)n3)cc2)cc1 [Compound 1.63, N-[2-(p-tolylmethoxy-imino)ethyl]-4-[5-(trifluoromethyl)-1,2,4-oxadiazol-3-yl]benzamide] | ≥ 80 |  | 
COc1ccccc1CON=C(C)CNC(=O)c1ccc(-c2noc(C(F)(F)F)n2)cc1 [Compound 1.112, N-[2-[(2-methoxyphenyl)methoxyimino]propyl]-4-[5-(trifluoromethyl)-1,2,4-oxadiazol-3-yl]benzamide] |  | ≥ 80 | 
CCCCCCCCCCCCON=CCNC(=O)c1ccc(-c2noc(C(F)(F)F)n2)cc1 [Compound 1.73, N-(2-dodecoxyimino-ethyl)-4-[5-(trifluoromethyl)-1,2,4-oxadiazol-3-yl]benzamide] | ≥ 80 |  | 
CC(C=NOCC=C(Cl)Cl)NC(=O)c1ccc(-c2noc(C(F)(F)F)n2)cc1 (stereo not shown) [Compound 1.34, N-[2-(3,3-dichloroallyl-oxyimino)-1-methyl-ethyl]-4-[5-(trifluoromethyl)-1,2,4-oxadiazol-3-yl]benzamide] | ≥ 80 | ≥ 80 | 
CC(C=NOCc1ccc(F)cc1)NC(=O)c1ccc(-c2noc(C(F)(F)F)n2)cc1 (stereo not shown) [Compound 1.52, N-[2-[(4-fluorophenyl)methoxyimino]-1-methyl-ethyl]-4-[5-(trifluoromethyl)-1,2,4-oxadiazol-3-yl]benzamide] | ≥ 80 | ≥ 80 | 
O=C(NCC=NOCc1ccc(Cl)cc1)c1ccc(-c2noc(C(F)(F)F)n2)cc1 [Compound 1.103, N-[2-[(4-chlorophenyl)methoxyimino]ethyl]-4-[5-(trifluoromethyl)-1,2,4-oxadiazol-3-yl]benzamide] |  |  | ≥ 80
COc1ccccc1CON=CC(C)NC(=O)c1ccc(-c2noc(C(F)(F)F)n2)cc1 (stereo not shown) [Compound 1.23, N-[2-[(2-methoxyphenyl)methoxyimino]-1-methyl-ethyl]-4-[5-(trifluoromethyl)-1,2,4-oxadiazol-3-yl]benzamide] | ≥ 80 |  | 
CCCCON=C(C)CNC(=O)c1ccc(-c2noc(C(F)(F)F)n2)cc1 [Compound 1.128, N-(2-butoxyiminopropyl)-4-[5-(trifluoromethyl)-1,2,4-oxadiazol-3-yl]benzamide] | ≥ 80 | ≥ 80 | 
CCCON=CC(C)NC(=O)c1ccc(-c2noc(C(F)(F)F)n2)cc1 (stereo not shown) [Compound 1.27, N-(1-methyl-2-propoxyimino-ethyl)-4-[5-(trifluoromethyl)-1,2,4-oxadiazol-3-yl]benzamide] | ≥ 80 | ≥ 80 | 
CC(C=NOCc1ccc(Cl)cc1)NC(=O)c1ccc(-c2noc(C(F)(F)F)n2)cc1 (stereo not shown) [Compound 1.59, N-[2-[(4-chlorophenyl)methoxyimino]-1-methyl-ethyl]-4-[5-(trifluoromethyl)-1,2,4-oxadiazol-3-yl]benzamide] | ≥ 80 |  | 
O=C(NCC=NOCc1c(Cl)cccc1Cl)c1ccc(-c2noc(C(F)(F)F)n2)cc1 [Compound 1.84, N-[2-[(2,6-dichlorophenyl)methoxyimino]ethyl]-4-[5-(trifluoromethyl)-1,2,4-oxadiazol-3-yl]benzamide] | ≥ 80 |  | 
CC(CNC(=O)c1ccc(-c2noc(C(F)(F)F)n2)cc1)=NOCc1ccc([N+](=O)[O-])cc1 [Compound 1.105, N-[2-[(4-nitrophenyl)methoxyimino]propyl]-4-[5-(trifluoromethyl)-1,2,4-oxadiazol-3-yl]benzamide] |  |  | ≥ 80
COc1ccc(CON=C(C)CNC(=O)c2ccc(-c3noc(C(F)(F)F)n3)cc2)cc1 [Compound 1.108, N-[2-[(4-methoxyphenyl)methoxyimino]propyl]-4-[5-(trifluoromethyl)-1,2,4-oxadiazol-3-yl]benzamide] |  | ≥ 80 | 
CC(C=NOCc1ccccc1)NC(=O)c1ccc(-c2noc(C(F)(F)F)n2)cc1 (stereo not shown) [Compound 1.47, N-(2-benzyloxyimino-1-methyl-ethyl)-4-[5-(trifluoromethyl)-1,2,4-oxadiazol-3-yl]benzamide] | ≥ 80 | ≥ 80 | 
